Test results taken from PubChem BioAssay (NCI).
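Dose response: 5 concentrations. Exposure: 48 h. Format: 96-well plates. Endpoint: linear interpolation; highest concentration if not reached. Here, GI50 denotes the concentration required for 50% inhibition of growth. Definition used: TGI = concentration required for complete inhibition of growth.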

Experiments:
Test in all cases: NCI anticancer screen, dose series, 48 h
UACC-257 melanoma = system: UACC-257 melanoma
DU-145 prostate = system: DU-145 prostate
SNB-19 CNS = system: SNB-19 CNS
SF-539 CNS = system: SF-539 CNS
TK-10 renal = system: TK-10 renal
PC-3 prostate = system: PC-3 prostate
MOLT-4 leukemia = system: MOLT-4 leukemia
SK-OV-3 ovarian = system: SK-OV-3 ovarian
MDA-MB-231 breast = system: MDA-MB-231 breast
RPMI-8226 leukemia = system: RPMI-8226 leukemia

| Compound | GI50 (UACC-257 melanoma) [µM] | TGI (UACC-257 melanoma) [µM] | GI50 (DU-145 prostate) [µM] | TGI (DU-145 prostate) [µM] | GI50 (SNB-19 CNS) [µM] | TGI (SNB-19 CNS) [µM] | GI50 (SF-539 CNS) [µM] | TGI (SF-539 CNS) [µM] | GI50 (TK-10 renal) [µM] | TGI (TK-10 renal) [µM] | GI50 (PC-3 prostate) [µM] | TGI (PC-3 prostate) [µM] | GI50 (MOLT-4 leukemia) [µM] | TGI (MOLT-4 leukemia) [µM] | GI50 (SK-OV-3 ovarian) [µM] | TGI (SK-OV-3 ovarian) [µM] | GI50 (MDA-MB-231 breast) [µM] | TGI (MDA-MB-231 breast) [µM] | GI50 (RPMI-8226 leukemia) [µM] | TGI (RPMI-8226 leukemia) [µM] |
| --- | --- | --- | --- | --- | --- | --- | --- | --- | --- | --- | --- | --- | --- | --- | --- | --- | --- | --- | --- | --- |
| Cc1cc(NS(=O)(=O)c2ccc(-c3cnc(C4CC4)o3)cc2)ccc1Cl | 1.77 | 18.2 | 0.455 | 15.1 | 0.362 | 16.3 | 0.281 | 4.09 | 1.11 | 16 | 0.272 | 15.3 | 0.525 | 46.8 | 0.868 | 20.8 | 0.794 | 12.2 | 0.329 | > 52.1 |
| C=C(CC)C(=O)c1ccc(OCC(=O)O)c(Cl)c1Cl | – | 55.4 | – | > 73.2 | – | 31.3 | – | 24.4 | – | 30.2 | – | > 81.8 | – | > 62.2 | – | > 100 | – | 34.6 | – | > 100 |
| Cc1ccc(/C=C(/C#N)n2nnc3cccc(F)c32)cc1 | 1.13 | 39.9 | 0.332 | 7.13 | 0.466 | 17.4 | 0.247 | 0.657 | 1.22 | 13 | 0.412 | 14.6 | 0.394 | > 100 | 0.931 | 55.1 | 0.807 | 9.66 | 0.391 | – |
| N#CC(Cl)CS(=O)(=O)c1ccccc1 (stereo not given) | – | 14 | – | 32.4 | – | 35.1 | – | 28.5 | – | 6.85 | – | 31.6 | 0.0561 | 3.62 | – | 33.6 | – | 41.4 | – | 14.1 |
| CCN(CC)CCOc1ccc2c(-c3ccccc3)c(-c3ccc(OC)cc3)c(=O)oc2c1 | 2.47 | 7 | 10.5 | 22.6 | 10.2 | 22.2 | 5.48 | 19.1 | 11.6 | 25.2 | 4.19 | 18.3 | 2.82 | 8.27 | 11 | 23 | 4.91 | 17.5 | 2.56 | 11.8 |
| O=C(Nc1nc2ccc(OC(F)(F)F)cc2s1)c1ccc(F)cc1 | 3.57 | 26.7 | 3.44 | > 100 | 3.74 | > 100 | 2.26 | 6.95 | 4.06 | > 100 | 2.81 | 8.7 | 3.08 | 84.9 | 2.6 | 8.44 | 3.3 | 18.9 | 2.52 | 8.08 |
| N=C1C(c2nc3ccccc3c(=O)[nH]2)=C(O)CN1c1cccc(Cl)c1 | > 100 | > 100 | 5.12 | > 57.9 | 6.74 | > 100 | 3.51 | 24.8 | 6.68 | > 50.6 | 2.69 | > 29.5 | 4.51 | > 100 | 5.55 | > 100 | > 100 | > 100 | 2.15 | 6.37 |
| Cn1cc(Nc2nccc(-c3ccc4c(c3)CN(C3COC3)CC[C@H]4NC(=O)c3cn(C(C)(C)C)nn3)n2)cn1 | > 100 | > 100 | > 100 | > 100 | > 100 | > 100 | 99.1 | > 100 | 59.5 | > 100 | > 100 | > 100 | 89.7 | > 100 | 62.5 | > 100 | 77.3 | > 100 | > 100 | > 100 |
| O=C1NC(=NCCc2ccccc2F)S/C1=C\c1ccc2ncccc2c1 | 9.35 | > 25 | 8.81 | > 25 | 5.68 | > 25 | 5.18 | > 25 | 5.13 | > 25 | 13.4 | > 25 | 9.02 | > 25 | 7.82 | > 25 | 16.2 | > 25 | 4.18 | 24.9 |
| Cc1cc2c(C(C)C)c(O)c(O)c(/C=N/O)c2c(O)c1-c1c(C)cc2c(C(C)C)c(O)c(O)c(/C=N/O)c2c1O | 2.97 | 8.76 | 2.77 | 13.7 | 3.32 | 23.5 | 1.85 | 5.37 | 3.13 | 13.7 | 2.8 | 13.5 | 2.23 | 7.64 | 3.6 | 11.9 | 3.5 | 20.2 | 2.44 | 15.4 |
| Nc1nc(N)c2c(Cl)c(CNc3ccc(Cl)c(Cl)c3)ccc2n1 | – | 19.4 | – | 15.7 | – | 17.7 | – | 1.21 | – | 12.4 | – | 12.7 | – | 9.41 | – | 16.1 | – | 7.26 | – | 12.5 |
| CC(=O)NC(CCc1ccc(Cl)c(Cl)c1)c1cccc(O)c(=O)c1 (stereo not given) | 0.649 | 4.4 | 1.18 | > 49.2 | 0.919 | 18.8 | 0.514 | 5.35 | 0.864 | > 100 | 0.78 | 24.7 | 0.74 | 14.4 | 1.43 | 17.4 | 0.709 | 15.5 | 1.22 | 19.7 |
| CC(C)(Oc1cccc(N2CCC[C@@H](C(=O)N(Cc3ccc(-c4cn[nH]c4)cc3)C3CC3)C2)c1)C(=O)N1CCNCC1 | 12.2 | 25.9 | 14.5 | 28 | 15.1 | 29.7 | 11.4 | 24.2 | 14.8 | 28.4 | 13.6 | 39.1 | 12.1 | 55.8 | 16.9 | 33.6 | 14.8 | 29.7 | 7.11 | 31.3 |
| C=C1CC[C@@](C)(c2cc(Br)c(C)cc2OC(C)=O)[C@H]1C | 16.1 | 30.2 | 15.9 | 31.9 | 15.5 | 31.2 | 13.5 | 26.4 | 12 | 25 | 11.1 | 24.2 | 9.99 | 24.8 | 16.4 | 29.9 | 12.5 | 25.9 | 9.55 | 24.9 |
| COc1cc(C(=O)/C=C/c2cccnc2Nc2ccc(Cl)cc2)cc(OC)c1OC | 1.5 | 2.92 | 1.63 | 2.98 | 1.52 | 2.88 | 1.71 | 3.11 | 1.87 | 3.35 | 1.44 | 3.33 | 2.55 | 10.5 | 1.72 | 3.29 | 1.49 | 3.12 | 0.655 | 5.01 |
| Cc1ccc2c(-c3ccnc(Nc4cccc(C(F)(F)F)c4)n3)c(-c3ccccc3)nn2n1 | 8.31 | > 16.6 | 12.3 | 24.4 | > 17.9 | > 25 | 6.56 | > 19.6 | 3.57 | 11.4 | > 13 | > 25 | > 25 | > 25 | 0.597 | > 15.8 | 3.34 | 8.64 | > 14.2 | > 25 |
| CCc1nc(N)nc(N)c1-c1ccc(N2CCNCC2)c([N+](=O)[O-])c1 | – | 57.7 | – | > 100 | – | > 100 | – | > 100 | – | > 100 | – | > 100 | – | > 100 | – | > 100 | – | 69.2 | – | > 100 |
| NC(=O)NC(=O)Nc1ccc(Br)cc1 | – | > 100 | – | > 100 | – | > 39.3 | – | > 100 | – | > 100 | – | > 100 | – | > 100 | – | > 100 | – | > 42.1 | – | > 35 |
